Measurements reported in patent US9434734B2, “Substituted pyrazoloquinazolinones and pyrroloquinazolinones as allosteric modulators of group II metabotropic glutamate receptors” (Domain Therapeutics, priority 2012, dated 2016).

Key:
[1] = target: T1, human mGluR2 (hmGluR2) transiently over-expressed in HEK-293 cells (Homo sapiens, UniProt Q14416); test: Human mGluR2 negative allosteric modulator evaluation using Ca++ functional assay (agonist and NAM activity); assay type: cell-based; settings: hmGluR2 in HEK-293 cells, EC80 glutamate, Fluo4AM calcium readout; read-out: mGluR2 negative allosteric modulator activity IC50
T1 construct: expressed in transfected cells; host or cells: HEK-293 cells, transient co-transfection by electroporation
In short: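 Compound alone (agonist mode) was followed on the same plate by EC80 glutamate (NAM mode), with fluorescence read 60 s. Eight-point curves, variable-slope fit, duplicate, two independent runs.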

[2] = target: human mGluR3 (hmGluR3) (Homo sapiens, UniProt Q14832); test: mGluR3 negative allosteric modulator activity; assay type: cell-based
Chain of human mGluR3 (hmGluR3) (Q14832 23-879): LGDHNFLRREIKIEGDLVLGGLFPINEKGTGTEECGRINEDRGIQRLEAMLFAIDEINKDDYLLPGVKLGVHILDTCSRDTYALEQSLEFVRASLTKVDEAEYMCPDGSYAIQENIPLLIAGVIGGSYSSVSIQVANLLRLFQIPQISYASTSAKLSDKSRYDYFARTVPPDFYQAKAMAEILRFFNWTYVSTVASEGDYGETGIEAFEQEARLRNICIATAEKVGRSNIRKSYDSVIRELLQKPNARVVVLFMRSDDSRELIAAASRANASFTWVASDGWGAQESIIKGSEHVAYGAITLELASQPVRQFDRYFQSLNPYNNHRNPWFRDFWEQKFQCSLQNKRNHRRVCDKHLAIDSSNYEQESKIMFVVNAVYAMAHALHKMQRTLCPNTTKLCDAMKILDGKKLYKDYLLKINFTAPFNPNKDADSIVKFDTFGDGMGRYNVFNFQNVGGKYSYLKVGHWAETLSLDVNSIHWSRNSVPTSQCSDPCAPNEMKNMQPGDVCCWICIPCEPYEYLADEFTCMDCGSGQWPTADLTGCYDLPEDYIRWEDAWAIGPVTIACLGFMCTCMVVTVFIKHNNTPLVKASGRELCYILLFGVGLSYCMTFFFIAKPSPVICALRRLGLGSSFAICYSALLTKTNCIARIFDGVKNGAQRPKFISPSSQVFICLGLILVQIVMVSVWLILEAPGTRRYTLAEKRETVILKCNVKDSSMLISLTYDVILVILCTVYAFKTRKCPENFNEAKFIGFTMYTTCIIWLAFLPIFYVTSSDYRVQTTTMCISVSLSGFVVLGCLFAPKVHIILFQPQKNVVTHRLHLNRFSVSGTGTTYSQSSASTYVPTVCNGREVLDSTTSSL

T1 sequence (Q14416 19-872): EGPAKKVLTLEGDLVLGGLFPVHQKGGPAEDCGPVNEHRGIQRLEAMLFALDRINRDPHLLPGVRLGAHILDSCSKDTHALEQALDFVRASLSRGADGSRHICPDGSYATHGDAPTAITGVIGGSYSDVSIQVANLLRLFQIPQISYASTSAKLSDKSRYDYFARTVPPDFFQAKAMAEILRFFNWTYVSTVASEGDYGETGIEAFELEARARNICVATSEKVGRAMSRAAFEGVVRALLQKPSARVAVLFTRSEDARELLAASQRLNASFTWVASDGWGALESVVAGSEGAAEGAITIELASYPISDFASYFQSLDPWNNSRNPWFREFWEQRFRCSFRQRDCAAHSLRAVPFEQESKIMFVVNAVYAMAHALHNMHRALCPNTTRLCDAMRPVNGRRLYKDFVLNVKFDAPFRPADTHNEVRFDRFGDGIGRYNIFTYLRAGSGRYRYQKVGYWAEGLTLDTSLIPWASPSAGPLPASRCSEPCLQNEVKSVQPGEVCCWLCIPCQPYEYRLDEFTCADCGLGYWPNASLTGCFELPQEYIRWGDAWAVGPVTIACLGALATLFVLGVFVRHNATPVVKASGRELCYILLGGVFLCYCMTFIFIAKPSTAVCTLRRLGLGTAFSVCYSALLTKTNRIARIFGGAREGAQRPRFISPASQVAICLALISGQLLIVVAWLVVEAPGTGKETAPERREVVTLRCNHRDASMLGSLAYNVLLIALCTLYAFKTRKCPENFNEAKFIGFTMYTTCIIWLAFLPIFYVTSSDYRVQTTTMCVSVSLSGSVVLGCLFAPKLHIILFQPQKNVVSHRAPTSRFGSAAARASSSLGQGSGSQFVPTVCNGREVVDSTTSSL

SMILES	IC50 [1]	melting point	IC50 [2]
Cn1c(=O)c2ccc(-c3cccc(C(=O)O)c3)cc2n2nc(-c3ccccc3)cc12 [Example 34, 3-(4-Methyl-5-oxo-2-phenyl-4,5-dihydro-pyrazolo[1,5-a]quinazolin-8-yl)-benzoic Acid]	< 1000 nM	> 250 °C	< 1000 nM
CCn1c(=O)c2ccc(-c3ccc(N)nc3)cc2n2nc(C3CCCC3)cc12.Cl [Example 69, 8-(6-Amino-pyridin-3-yl)-2-cyclopentyl-4-ethyl-4H-pyrazolo[1,5-a]quinazolin-5-one]	< 1000 nM	> 250 °C	< 1000 nM
Cl.Cn1cc(-c2cc3n(C)c(=O)c4ccc(-c5ccc(N)nc5)cc4n3n2)cn1 [Example 128, 8-(6-Amino-pyridin-3-yl)-4-methyl-2-(1-methyl-1H-pyrazol-4-yl)-4H-pyrazolo[1,5-a]quinazolin-5-one]	< 1000 nM	217 to 228 °C	
Cl.Cn1cc(-c2cc3n(C)c(=O)c4ccc(-c5ccncc5)cc4n3n2)cn1 [Example 129, 4-Methyl-2-(1-methyl-1H-pyrazol-4-yl)-8-pyridin-4-yl-4H-pyrazolo[1,5-a]quinazolin-5-one]	< 1000 nM	> 250 °C	
Cc1cc(-c2ccc3c(=O)n(C)c4cc(-c5cnn(C)c5)nn4c3c2)cc(C)n1.Cl [Example 130, 8-(2,6-Dimethyl-pyridin-4-yl)-4-methyl-2-(1-methyl-1H-pyrazol-4-yl)-4H-pyrazolo[1,5-a]quinazolin-5-one]	< 1000 nM	> 250 °C	
Cc1cc(-c2ccc3c(=O)n(C)c4cc(-c5ccnc(C(F)(F)F)c5)nn4c3c2)ccn1.Cl [Example 138, 4-Methyl-8-(2-methyl-pyridin-4-yl)-2-(2-trifluoromethyl-pyridin-4-yl)-4H-pyrazolo[1,5-a]quinazolin-5-one]	< 1000 nM	> 250 °C	
Cn1c(=O)c2ccc(-c3ccnc(C(F)(F)F)c3)cc2n2nc(-c3ccnc(C(F)(F)F)c3)cc12 [Example 139, 4-Methyl-2,8-bis-(2-trifluoromethyl-pyridin-4-yl)-4H-pyrazolo[1,5-a]quinazolin-5-one]	< 1000 nM	> 250 °C	
Cn1c(=O)c2ccc(-c3ccnc(F)c3)cc2n2nc(-c3ccnc(C(F)(F)F)c3)cc12 [Example 140, 8-(2-Fluoro-pyridin-4-yl)-4-methyl-2-(2-trifluoromethyl-pyridin-4-yl)-4H-pyrazolo[1,5-a]quinazolin-5-one]	< 1000 nM	> 250 °C	
Cc1ncncc1-c1ccc2c(=O)n(C)c3cc(-c4ccnc(C(F)(F)F)c4)nn3c2c1.Cl [Example 144, 4-Methyl-8-(4-methyl-pyrimidin-5-yl)-2-(2-trifluoromethyl-pyridin-4-yl)-4H-pyrazolo[1,5-a]quinazolin-5-one]	< 1000 nM	> 250 °C	
Cc1n[nH]c(C)c1-c1ccc2c(=O)n(C)c3cc(-c4ccnc(C(F)(F)F)c4)nn3c2c1 [Example 145, 8-(3,5-Dimethyl-1H-pyrazol-4-yl)-4-methyl-2-(2-trifluoromethyl-pyridin-4-yl)-4H-pyrazolo[1,5-a]quinazolin-5-one]	< 1000 nM	> 250 °C	
Cc1cc(-c2cc3n(C)c(=O)c4ccc(-c5c(C)n[nH]c5C)cc4n3n2)cc(C)n1.Cl [Example 146, 8-(3,5-Dimethyl-1H-pyrazol-4-yl)-2-(2,6-dimethyl-pyridin-4-yl)-4-methyl-4H-pyrazolo[1,5-a]quinazolin-5-one]	< 1000 nM	> 250 °C	
Cc1cc(-c2cc3n(C)c(=O)c4ccc(-c5c[nH]nc5C(F)(F)F)cc4n3n2)cc(C)n1.Cl [Example 147, 2-(2,6-Dimethyl-pyridin-4-yl)-4-methyl-8-(3-trifluoromethyl-1H-pyrazol-4-yl)-4H-pyrazolo[1,5-a]quinazolin-5-one]	< 1000 nM	> 250 °C	

Now from value to compound:

IC50 [1]	melting point	IC50 [2]	SMILES
< 1000 nM	226 to 238 °C		CCn1cc(-c2cc3n(C)c(=O)c4ccc(-c5ccc(N)nc5)cc4n3n2)cn1.Cl [Example 131, 8-(6-Amino-pyridin-3-yl)-2-(1-ethyl-1H-pyrazol-4-yl)-4-methyl-4H-pyrazolo[1,5-a]quinazolin-5-one]
< 1000 nM	> 250 °C		Cc1ncccc1-c1ccc2c(=O)n(C)c3cc(-c4ccnc(C(F)(F)F)c4)nn3c2c1.Cl [Example 135, 4-Methyl-8-(2-methyl-pyridin-3-yl)-2-(2-trifluoromethyl-pyridin-4-yl)-4H-pyrazolo[1,5-a]quinazolin-5-one]
< 1000 nM	> 250 °C		Cl.Cn1c(=O)c2ccc(-c3ccc(N)nc3)cc2n2nc(-c3ccnc(C(F)(F)F)c3)cc12 [Example 136, 8-(6-Amino-pyridin-3-yl)-4-methyl-2-(2-trifluoromethyl-pyridin-4-yl)-4H-pyrazolo[1,5-a]quinazolin-5-one]
< 1000 nM	> 250 °C		CCc1ncccc1-c1ccc2c(=O)n(C)c3cc(-c4ccnc(C(F)(F)F)c4)nn3c2c1.Cl [Example 137, 8-(2-Ethyl-pyridin-3-yl)-4-methyl-2-(2-trifluoromethyl-pyridin-4-yl)-4H-pyrazolo[1,5-a]quinazolin-5-one]
< 1000 nM	> 250 °C		Cn1c(=O)c2ccc(-c3ccc(F)nc3)cc2n2nc(-c3ccnc(C(F)(F)F)c3)cc12 [Example 141, 8-(6-Fluoro-pyridin-3-yl)-4-methyl-2-(2-trifluoromethyl-pyridin-4-yl)-4H-pyrazolo[1,5-a]quinazolin-5-one]
< 1000 nM	> 250 °C		Cc1ccc(-c2ccc3c(=O)n(C)c4cc(-c5ccnc(C(F)(F)F)c5)nn4c3c2)c(C)n1.Cl [Example 143, 8-(2,6-Dimethyl-pyridin-3-yl)-4-methyl-2-(2-trifluoromethyl-pyridin-4-yl)-4H-pyrazolo[1,5-a]quinazolin-5-one]
